According to US20050043262A1, “Novel specific inhibitor of the cyclin kinase inhibitor p21Waf1/Cip1 and methods of using the inhibitor” (priority 2000, published 2005):
In the oligonucleotide strings, read from the 5' end, every base follows the letter of its sugar. An asterisk marks phosphorothioate; unmarked linkages are phosphodiester. Other units and linkages are bracketed, terminal groups are in braces. A string of capitals states the bases alone. d = 2'-deoxy (DNA)

Tests used:
Format in all cases: cell-based, human
p21 [1] = test: p21 level in T47D cells (immunoblot, immunohistochemistry); settings: for p21 level by immunoblot: 200 or 400 nM, 24 hours after transfection
Description: (§1) Antisense Transfections: […] (Wilsonville, Oreg.). The human p21 antisense ODN sequence was [NT] ID NO.: 4). The randomly scrambled sequence of control ODN was [NT] ID NO.: 3), and the second control ODN (used for the experiment depicted in FIG. 34 was the sense human p21 sequence [NT] ID NO.: 5). For the transfection procedure, cells were grown to 70% confluence and washed with sterile PBS, and the ODNs (200 or 400 nM) were mixed with 6.6 μl Lipofectin/ml Opti-MEM media and added to the cells for 5 hours at 37° C. Serum-free media (without ODNs) were added overnight, the media were changed in the morning, and the cells were stimulated with serum or platelet-derived growth factor-BB as indicated. Immunoblotting: For FIGS. 27A and B, aliquots of each breast tumor (7) and corresponding normal (N) tissue were homogenized and subjected to immunoblotting with full-length p21 antibody and α-actin as a loading control. Density of p21 and actin bands was determined and reported as a ratio. HeLa cell nuclear extract was electrophoresed on the same gel as a positive control for p21 mobility. The samples of breast cancer tissues were cut into small pieces and rapidly homogenized in lysis buffer (1 ml/ mg) at 4° C. Cells from cell lines were grown to confluence in 60-mm culture dishes, and after incubation under appropriate conditions, the cells were washed with PBS and lysed in lysis buffer at 4° C. The tissue homogenates or cell lysates were centrifuged (13,000× g, 4° C., 10 min), and the supernatants were Western blotted as described previously (Weiss, […]., and Ramirez, A., Am. J. Physiol., 274: […]-[…], 1998). Densitometry was analyzed using NIH Image. […] Percentage of cytoplasmic and nuclear staining, intensity of staining (using a scale of 0 to 3+), and tumor grading using a modified Bloom-Richardson combined histological grade were determined by a breast pathologist. […] A and B, the cells were lysed, and equal protein quantities (20 μg) were electrophoresed and immunoblotted with p21 antibody. […] Density of p21 and MAPK bands was determined and reported as a ratio. […]

p21 [2] = test: p21 level in MCF7 cells (immunoblot, immunohistochemistry); settings: for p21 level by immunoblot: 200 or 400 nM, 24 hours after transfection
Description: as §1

T47D cells = test: [3H]thymidine incorporation in T47D cells; settings: 200 nM, serum 24 hours
Description: (§2) Cell Culture and DNA Synthesis: T47D (ductal carcinoma) and MCF7 (adenocarcinoma) human breast cancer cell lines were obtained from the American Type Culture Collection. All cell lines were maintained according to vendors' recommendations. The cells were growth arrested by placing them in serum-free quiescence media and exposed to 10% serum-containing media as indicated. [^3H]Thymidine incorporation was assessed as described previously (Weiss, R. H., and Nuccitelli, R., J. Biol. Chem., 267: 5608-5613, 1992).
(§3) Apoptotic cells will not incorporate thymidine into DNA during S phase, but [^3H]thymidine incorporation experiments will not distinguish between G1→S arrest and apoptosis. Serum-starved cells were transfected with 200 nM antisense p21 and control ODN, stimulated with serum-containing media, and examined for their ability to incorporate [^3H]thymidine into DNA. […] Antisense p21 attenuates [^3H]thymidine incorporation. MCF7 and T47D cells were grown to confluence, serum starved for 24 hours, and lipofected with antisense p21 (AS) or control (SC) ODN at the concentrations indicated (in nM). […] Serum was added for 24 hours, and the cells were incubated with [^3H]thymidine for the last 6 hours. DNA synthesis was assessed by [^3H]thymidine incorporation and is expressed as mean +SD of 3 wells/data point. *, P <0.05 compared with antisense p21 ODN transfection. […]

MCF7 cells = test: [3H]thymidine incorporation in MCF7 cells; settings: 200 nM, serum 24 hours
Description: as §2, §3

p21^Waf1/Cip1 = test: PMA-induced p21 level by Western blot in A431 cells; settings: 200 nM oligodeoxynucleotide, PMA 100 ng/ml up to 6 hours
Description: Western blots: Cells were grown to confluence in 6 cm culture dishes and serum deprived. After transfection and or treatment with appropriate agonist, the cells were washed with phosphate-buffered saline and lysed in lysis buffer and the supernatant was Western blotted as described (Weiss and Nuccitelli, 1992 J. Biol. Chem., 267, p. 5608-5613).
PMA is a potent inducer of p21^Waf1/Cip1 in a variety of different cell lines (Huang et al., 1995 Proc. Natl. Acad. Sci. US.A., 92, p. 4793-4797; Michieli et al., 1994 Cancer Res., 54, p. 3391-3395) and was employed to examine p21^Waf1/Cip1 levels after antisense transfection and confirm efficacy of translation to attenuate p21^Waf1/Cip1 levels. A431 cells were transfected with 200 nM antisense p21^Waf1/Cip1 (SEQ. ID NO.:1) or sense p21^Waf1/Cip1 oligodeoxynucleotide (SEQ. ID NO.:2). After overnight incubation in serum-free medium, the cells were stimulated with PMA (100 ng/ml) for the times indicated, lysed, and the lysates were Western blotted with p21^Waf1/Cip1 or α-actin antibody.

[3] = compared with random sequence ODN

5′-ATC-CCC-AGC-CGG-TTC-TGA-CAT-3′ (antisense ATCCCCAGCCGGTTCTGACAT; listed as DNA, chemistry not fully specified) [antisense p21 ODN]
p21 level by immunoblot (p21 [1]): marked, dose-dependent attenuation
p21 staining by immunohistochemistry (p21 [1]; [3]): decreased p21 staining
p21 level by immunoblot (p21 [2]): marked, dose-dependent attenuation
p21 staining by immunohistochemistry (p21 [2]; [3]): decreased p21 staining
[3H]thymidine incorporation (DNA incorporation) (T47D cells): significant attenuation
[3H]thymidine incorporation (DNA incorporation) (MCF7 cells): significant attenuation

5′-GACATCACCAGGATCGGACAT-3′
PMA-induced p21^Waf1/Cip1 levels (p21^Waf1/Cip1): significant attenuation

5′-TGG ATC CGA CAT GTC AGA-3′ (dT*dG*dG*dA*dT*dC*dC*dG*dA*dC*dA*dT*dG*dT*dC*dA*dG*dA) [random sequence control oligonucleotide, reference compound]
p21 level by immunoblot (p21 [1]): inhibitory effect
p21 level by immunoblot (p21 [2]): moderate decrease
